Experimental data: patent US20250320213A1, “Nitrogen-Containing Heterocyclic Compounds” (Pfizer Inc., priority 2024, published 2025)
Read-outs that look alike come from different tables or passages of the source.

Legend:
[1] = test system: CCL17 secretion in peripheral human whole blood; test: Human Whole Blood (HWB) CCL17 TR-FRET Assay (IL-13 stimulated CCL17 secretion); assay type: cell-based
Outline: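 Heparinized peripheral human whole blood was preincubated with compound (11-point, 3-fold series, duplicate) for 2 h at 37 °C, then stimulated with IL-13 at 10 ng/mL final for 48 h at 37 °C. Secreted CCL17 in the serum was quantified by TR-FRET sandwich immunoassay (665/615 nm ratio, 16 h RT); IC50 derived.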

STAT6 = target: T1, STAT6 (Homo sapiens, UniProt P42226); test: STAT6 Reporter Luciferase Assay (IL-13 stimulated HaCaT keratinocyte NanoLuc reporter cells); assay type: cell-based; settings: read-out: Reporter EC50
T1 construct: stably transfected HaCaT keratinocyte cell line, which expresses NanoLuc luciferase reporter gene under the transcriptional control of the STAT6 responsive promoter; endogenous in cells; host or cells: HaCaT keratinocyte reporter cell line (stably transfected with a NanoLuc reporter)
T1 sequence (P42226 1-847): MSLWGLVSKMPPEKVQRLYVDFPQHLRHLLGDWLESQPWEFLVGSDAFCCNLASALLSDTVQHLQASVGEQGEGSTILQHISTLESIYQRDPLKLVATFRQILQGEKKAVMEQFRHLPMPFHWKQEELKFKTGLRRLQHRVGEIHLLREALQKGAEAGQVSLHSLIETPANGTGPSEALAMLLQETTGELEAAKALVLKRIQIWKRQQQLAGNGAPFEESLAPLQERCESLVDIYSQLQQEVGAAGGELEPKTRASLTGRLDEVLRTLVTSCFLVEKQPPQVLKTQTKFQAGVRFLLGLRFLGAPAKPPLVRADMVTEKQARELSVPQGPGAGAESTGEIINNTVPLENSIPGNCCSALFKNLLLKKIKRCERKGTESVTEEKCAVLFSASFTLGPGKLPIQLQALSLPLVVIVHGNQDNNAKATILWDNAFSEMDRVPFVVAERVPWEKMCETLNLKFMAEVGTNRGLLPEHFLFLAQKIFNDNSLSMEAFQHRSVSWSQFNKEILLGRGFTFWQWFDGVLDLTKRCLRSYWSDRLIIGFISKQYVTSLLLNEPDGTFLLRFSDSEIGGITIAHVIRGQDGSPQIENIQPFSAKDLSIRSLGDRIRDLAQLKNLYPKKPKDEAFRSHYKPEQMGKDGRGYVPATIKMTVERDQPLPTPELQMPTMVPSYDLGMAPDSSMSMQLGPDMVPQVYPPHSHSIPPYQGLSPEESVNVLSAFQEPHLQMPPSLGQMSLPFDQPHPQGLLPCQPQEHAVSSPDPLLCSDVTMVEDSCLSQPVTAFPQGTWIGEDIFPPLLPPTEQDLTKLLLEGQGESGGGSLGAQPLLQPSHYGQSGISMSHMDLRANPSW
Outline: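 Luminescence from a NanoLuc reporter driven by the STAT6-responsive IL-13Ra2 promoter in HaCaT keratinocytes serves as the read-out. Compounds are given 2 h before a 4 h stimulation with 0.12 nM IL-13.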

[2] = Homo sapiens, 48 h, human whole blood, IL-13 stimulated
[3] = IL-13 stimulated HaCaT STAT6 NanoLuc reporter cells
[4] = Homo sapiens, 48 h, inhibition of CCL17 secretion in human whole blood, 10 ng/mL IL13, 48 hours
[5] = STAT6 NanoLuc luciferase reporter, IL-13 stimulated HaCaT keratinocyte cells
[6] = Homo sapiens, 48 h, human whole blood, 10 ng/mL IL13, 48 hours

Row | Compound | IC50 [1, 2] [nM] | EC50 (STAT6; [3]) [nM] | IC50 [1, 4] [nM] | EC50 (STAT6; [5]) [nM] | also measured
1 | CC(C)n1nc(C(=O)NCc2ccc(C(N)=O)cc2)c2c1[C@@H](C)CN(c1ccc(N3CCOC3=O)cn1)C2 [Example 517, (S)-N-(4-carbamoylbenzyl)-1-isopropyl-7-methyl-5-(5-(2-oxooxazolidin-3-yl)pyridin-2-yl)-4,5,6,7-tetrahydro-1H-pyrazolo[4,3-c]pyridine-3-carboxamide] | 33 | 9 |  |  | 
2 | CC(C)n1nc(C(=O)NCc2ccc(NC(=O)N3CC(C)(N)C3)cc2)c2c1CCN(c1ccc(C(=O)N(C)C)cn1)C2 [Example 163, N-(4-(3-amino-3-methylazetidine-1-carboxamido)benzyl)-5-(5-(dimethylcarbamoyl)pyridin-2-yl)-1-isopropyl-4,5,6,7-tetrahydro-1H-pyrazolo[4,3-c]pyridine-3-carboxamide] |  |  | 30 | 16 | 
3 | CC(C)n1nc(C(=O)NCc2ccc(NC(=O)C3CCN(C)CC3)c(F)c2)c2c1[C@@H](C)CN(c1ccc(C(=O)N(C)C)cn1)C2 [Example 587, (S)-5-(5-(dimethylcarbamoyl)pyridin-2-yl)-N-(3-fluoro-4-(1-methylpiperidine-4-carboxamido)benzyl)-1-isopropyl-7-methyl-4,5,6,7-tetrahydro-1H-pyrazolo[4,3-c]pyridine-3-carboxamide] |  | 14 |  |  | IC50 [1, 6]: 122 nM
4 | CC1CN(c2ccc(C(=O)N(C)C)cn2)Cc2c(C(=O)NCc3ccc(NC(=O)N(C)C)cc3)nn(C(C)C)c21 (racemic) [Example 95, rac-(R)-5-(5-(dimethylcarbamoyl)pyridin-2-yl)-N-(4-(3,3-dimethylureido)benzyl)-1-isopropyl-7-methyl-4,5,6,7-tetrahydro-1H-pyrazolo[4,3-c]pyridine-3-carboxamide] |  |  | 6 | 1 | 
5 | CC(C)n1nc(C(=O)NCc2ccc(NC(=O)N(C)C)cc2)c2c1CCN(c1ccc(C(=O)N3Cc4cccc(C(=O)N(C)C)c4C3)cn1)C2 [Example 431, 5-(5-(4-(dimethylcarbamoyl)isoindoline-2-carbonyl)pyridin-2-yl)-N-(4-(3,3-dimethylureido)benzyl)-1-isopropyl-4,5,6,7-tetrahydro-1H-pyrazolo[4,3-c]pyridine-3-carboxamide] | 89 | 12 |  |  | 
6 | CNC(=O)c1ccc(N2CCc3c(c(C(=O)NCc4ccc(NC(N)=O)cc4)nn3C(C)C)C2)nc1 [Example 456, 1-isopropyl-5-(5-(methylcarbamoyl)pyridin-2-yl)-N-(4-ureidobenzyl)-4,5,6,7-tetrahydro-1H-pyrazolo[4,3-c]pyridine-3-carboxamide] | 579 | 742 |  |  | 
7 | CC(C)n1nc(C(=O)NCc2ccc(NC(=O)N3CC4(CCNCC4)C3)cc2)c2c1[C@@H](C)CN(c1ccc(C(=O)N(C)C)cc1)C2 [Example 626, (S)-N-(4-(2,7-diazaspiro[3.5]nonane-2-carboxamido)benzyl)-5-(4-(dimethylcarbamoyl)phenyl)-1-isopropyl-7-methyl-4,5,6,7-tetrahydro-1H-pyrazolo[4,3-c]pyridine-3-carboxamide] |  | 38 |  |  | IC50 [1, 6]: 88 nM
8 | CC(C)n1nc(C(=O)NCc2ccc(NC(=O)N(C)C)cc2)c2c1CCN(c1ccc(C3CCN(C)C3=O)cn1)C2 (racemic) [Example 505, rac-(R)-N-(4-(3,3-dimethylureido)benzyl)-1-isopropyl-5-(5-(1-methyl-2-oxopyrrolidin-3-yl)pyridin-2-yl)-4,5,6,7-tetrahydro-1H-pyrazolo[4,3-c]pyridine-3-carboxamide] | > 30000 | 7900 |  |  | 
9 | CNC(=O)c1ccc(CNC(=O)c2csc3c2CN(c2ccc(C(=O)N(C)C)cn2)CC3)cc1 [Example 48, 5-(5-(dimethylcarbamoyl)pyridin-2-yl)-N-(4-(methylcarbamoyl)benzyl)-4,5,6,7-tetrahydrothieno[3,2-c]pyridine-3-carboxamide] |  |  | 3960 | 952 | 
10 | CC(C)n1nc(C(=O)NCc2ccc(NC(=O)N(C)C)cc2)c2c1CCN(c1ccc(N3C[C@H](CO)CC3=O)cn1)C2 [Example 75, (R)-N-(4-(3,3-dimethylureido)benzyl)-5-(5-(4-(hydroxymethyl)-2-oxopyrrolidin-1-yl)pyridin-2-yl)-1-isopropyl-4,5,6,7-tetrahydro-1H-pyrazolo[4,3-c]pyridine-3-carboxamide] |  |  | 4560 | 2830 | 
11 | CC(C)n1nc(C(=O)NCc2ccc(NC(=O)N(C)C)cc2)c2c1C(C(F)(F)F)CN(c1ncc(C(=O)N(C)C)cn1)C2 (single isomer, unassigned) [Example 461, rel-(R or S)-5-(5-(dimethylcarbamoyl)pyrimidin-2-yl)-N-(4-(3,3-dimethylureido)benzyl)-1-isopropyl-7-(trifluoromethyl)-4,5,6,7-tetrahydro-1H-pyrazolo[4,3-c]pyridine-3-carboxamide] |  | 0.2 |  |  | IC50 ([1]; human whole blood, IL-13 stimulated, 48 hours): < 1 nM
12 | CC(C)n1nc(C(=O)NCc2ccc(NC(=O)N3CC(N(C)C)C3)cc2)c2c1CCN(c1ccc(C(=O)N(C)C)cn1)C2 [Example 141, N-(4-(3-(dimethylamino)azetidine-1-carboxamido)benzyl)-5-(5-(dimethylcarbamoyl)pyridin-2-yl)-1-isopropyl-4,5,6,7-tetrahydro-1H-pyrazolo[4,3-c]pyridine-3-carboxamide] |  |  | 78 | 22 | 
13 | CC(C)n1nc(C(=O)NCc2ccc(NC(=O)N3CC(C)(O)C3)cc2)c2c1CCN(c1ccc(C(=O)N(C)C)cn1)C2 [Example 185, 5-(5-(dimethylcarbamoyl)pyridin-2-yl)-N-(4-(3-hydroxy-3-methylazetidine-1-carboxamido)benzyl)-1-isopropyl-4,5,6,7-tetrahydro-1H-pyrazolo[4,3-c]pyridine-3-carboxamide] | 83 | 24 |  |  | 
14 | CN(C)C(=O)Nc1ccc(CNC(=O)c2nn(C)c3c2CC(c2ccc(C(=O)N(C)C)cc2)CC3)cc1 (racemic) [Example 26, rac-(R)-5-(4-(Dimethylcarbamoyl)phenyl)-N-(4-(3,3-dimethylureido)benzyl)-1-methyl-4,5,6,7-tetrahydro-1H-indazole-3-carboxamide] |  |  | 561 | 69 | 
15 | CC(C)n1nc(C(=O)NCc2ccc(NC(=O)N3CC4(CCN(C)CC4)C3)c(F)c2)c2c1[C@@H](C)CN(c1ccc(C(=O)N(C)C)cn1)C2 [Example 608, (S)-5-(5-(dimethylcarbamoyl)pyridin-2-yl)-N-(3-fluoro-4-(7-methyl-2,7-diazaspiro[3.5]nonane-2-carboxamido)benzyl)-1-isopropyl-7-methyl-4,5,6,7-tetrahydro-1H-pyrazolo[4,3-c]pyridine-3-carboxamide] |  | 1 |  |  | IC50 [1, 6]: 16 nM
16 | CCn1nc(C(=O)NCc2ccc(NC(=O)N(C)C)cc2)c2c1C(C(F)(F)F)CN(c1ccc(C(=O)N(C)C)cn1)C2 (racemic) [Example 282, rac-(R)-5-(5-(dimethylcarbamoyl)pyridin-2-yl)-N-(4-(3,3-dimethylureido)benzyl)-1-ethyl-7-(trifluoromethyl)-4,5,6,7-tetrahydro-1H-pyrazolo[4,3-c]pyridine-3-carboxamide] | 9 | 1 |  |  | 
17 | CC1c2c(C(=O)NCc3ccc(NC(=O)N(C)C)cc3)nn(C)c2CCN1c1ccc(C(=O)N(C)C)cn1 (racemic) [Example 55, rac-(R)-5-(5-(dimethylcarbamoyl)pyridin-2-yl)-N-(4-(3,3-dimethylureido)benzyl)-1,4-dimethyl-4,5,6,7-tetrahydro-1H-pyrazolo[4,3-c]pyridine-3-carboxamide] |  |  | 12 | 10 | 
